Tests used:
[1] = biological target: T1, HDAC6-UBD (HDAC6 1109-1215) (Homo sapiens, UniProt Q9UBN7); experiment: biochemical; set-up: SPR, steady-state binding to immobilised biotinylated UBD proteins; details: read-out: SPR Kd µM (HDAC6)
T1 sequence (Q9UBN7 1109-1215): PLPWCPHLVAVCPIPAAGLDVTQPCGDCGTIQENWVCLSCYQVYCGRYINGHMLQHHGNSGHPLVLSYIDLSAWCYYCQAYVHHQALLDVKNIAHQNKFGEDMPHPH

[2] = biological target: T2, USP16-UBD (USP16 25-185) (Homo sapiens, UniProt Q9Y5T5); experiment: biochemical; set-up: SPR, steady-state binding to immobilised biotinylated UBD proteins; details: read-out: SPR Kd µM (USP16)
T2 sequence (Q9Y5T5 25-185): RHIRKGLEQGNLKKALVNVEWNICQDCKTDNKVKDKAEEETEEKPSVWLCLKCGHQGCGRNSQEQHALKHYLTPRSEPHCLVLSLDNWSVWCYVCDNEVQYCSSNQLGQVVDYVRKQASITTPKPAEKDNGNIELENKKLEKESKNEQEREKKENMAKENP

[3] = biological target: T2, USP16-UBD (USP16 25-185); experiment: SPR, steady state; type: binding
[4] = biological target: T1, HDAC6-UBD (HDAC6 1109-1215); experiment: SPR, steady state; type: binding
[5] = biological target: T1, HDAC6-UBD (HDAC6 1109-1215); experiment: SPR, steady state; type: binding; details: pH […] °C, […] DMSO
[6] = biological target: T2, USP16-UBD (USP16 25-185); experiment: SPR, steady state; type: binding; details: pH […] °C, […] DMSO

SMILES | Kd [3] [nM] | Kd [4] [nM] | also measured
Cn1c(CCC(=O)O)nc2ccccc2c1=O [DATR31] | – | – | Kd [1]: 2.7 µM; Kd [2]: 130 µM
O=C(O)CCc1nc2ccccc2c(=O)n1CC(=O)NCc1ccccc1 [UBXXML47] | – | – | Kd [2]: 11 µM
COc1ccccc1CNC(=O)Cn1c(CCC(=O)O)nc2ccccc2c1=O [UBXXML264] | – | – | Kd [2]: 13 µM
COc1ccccc1CNC(=O)Cn1c(CCC(=O)O)nc2c(F)cccc2c1=O [UBXXML299] | – | – | Kd [2]: 11 µM
O=C(O)CCc1nc2ccccc2c(=O)n1CC(=O)NCC1CCCCC1 [UBXXML9098] | – | – | Kd [2]: 4.8 µM
COc1ccccc1CN(C)C(=O)Cn1c(CCC(=O)O)nc2c(Cl)cccc2c1=O [compound 2] | 5600 ± 2100 | – | –
COc1ccccc1C(C)NC(=O)Cn1c(CCC(=O)O)nc2c(Cl)cccc2c1=O (stereo not shown) [compound 3, 3-(8-chloro-3-(2-((1-(2-methoxyphenyl)ethyl)amino)-2-oxoethyl)-4-oxo-3,4-dihydroquinazolin-2-yl)propanoic acid] | 440 | 50 ± 30 | –
COc1ccccc1C(C)N(C)C(=O)Cn1c(CCC(=O)O)nc2c(Cl)cccc2c1=O (stereo not shown) [compound 4, 3-(8-chloro-3-(2-((1-(2-methoxyphenyl)ethyl)(methyl)amino)-2-oxoethyl)-4-oxo-3,4-dihydroquinazolin-2-yl)propanoic acid] | – | – | KD [5]: complete loss of binding activity for both USP16-UBD and HDAC6-UBD; KD [6]: complete loss of binding activity for both USP16-UBD and HDAC6-UBD
O=C(O)CCc1nc2c(Cl)cccc2c(=O)n1CC(=O)NCC1CCCOC1 (stereo not shown) [compound 6, 3-(8-Chloro-4-oxo-3-(2-oxo-2-(((tetrahydro-2H-pyran-3-yl)methyl)amino)ethyl)-3,4-dihydroquinazolin-2-yl)propanoic Acid] | 7800 ± 990 | 2100 ± 70 | –
CCOc1ccccc1CNC(=O)Cn1c(CCC(=O)O)nc2c(Cl)cccc2c1=O [compound 7, 3-(8-chloro-3-(2-((2-ethoxybenzyl)amino)-2-oxoethyl)-4-oxo-3,4-dihydroquinazolin-2-yl)propanoic acid] | 2900 ± 1200 | 650 ± 270 | –
Cc1ccccc1CNC(=O)Cn1c(CCC(=O)O)nc2c(Cl)cccc2c1=O [compound 8] | 1800 ± 960 | – | –
O=C(O)CCc1nc2c(Cl)cccc2c(=O)n1CC(=O)NCc1ccccc1Cl [compound 9] | 1200 ± 600 | – | –
O=C(O)CCc1nc2c(Cl)cccc2c(=O)n1CC(=O)NCc1ccccc1F [compound 10] | 400 ± 150 | – | –
CN(Cc1ccccc1F)C(=O)Cn1c(CCC(=O)O)nc2c(Cl)cccc2c1=O [compound 11, 3-(8-Chloro-3-(2-((2-fluorobenzyl)(methyl)amino)-2-oxoethyl)-4-oxo-3,4-dihydroquinazolin-2-yl)propanoic Acid] | 2500 ± 340 | 32300 ± 18200 | –
C[C@H](NC(=O)Cn1c(CCC(=O)O)nc2c(Cl)cccc2c1=O)c1ccccc1F [compound 12, (S)-3-(8-Chloro-3-(2-((1-(2-fluorophenyl)ethyl)amino)-2-oxoethyl)-4-oxo-3,4-dihydroquinazolin-2-yl)propanoic Acid] | 210 ± 30 | 50 ± 10 | –
C[C@@H](c1ccccc1F)N(C)C(=O)Cn1c(CCC(=O)O)nc2c(Cl)cccc2c1=O [compound 13, (S)-3-(8-Chloro-3-(2-((1-(2-fluorophenyl)ethyl)(methyl)amino)-2-oxoethyl)-4-oxo-3,4-dihydroquinazolin-2-yl)propanoic Acid] | 2900 ± 490 | 31300 ± 2500 | –
CC(NC(=O)Cn1c(CCC(=O)O)nc2c(Cl)cccc2c1=O)c1c(F)cccc1F (stereo not shown) [compound 14, 3-(8-chloro-3-(2-((1-(2,6-difluorophenyl)ethyl)amino)-2-oxoethyl)-4-oxo-3,4-dihydroquinazolin-2-yl)propanoic acid] | < 100 | – | –

From paper doi:10.1101/2025.10.23.684218v2, “Development of a dual chemical probe for the USP16 and HDAC6 zinc-finger ubiquitin-binding domain” (biorxiv, 2025)
